Experimental data reported in paper PMC10241580, “Bioassay-Guided Isolation of Antiplasmodial Compounds from Hypericum lanceolatum Lam. (Hypericaceae) and Their Cytotoxicity and Molecular Docking” (BioMed Research International, 2023).
Values after ≈ are worked out from the molar mass of the structure shown.

What was measured:
[1] = In vitro cytotoxicity MTT assay on P388 cell line; format: cell-based; settings: mouse, mean ± SD (n = 3)
Procedure: The in vitro study of the cytotoxicity potency of the isolated compounds was performed using the P388 (mouse leukaemia) cell line which was obtained from the American Type Culture Collection (ATCC) (Rockville, MD, USA). The cells were arranged in 96-well plates at a density of 10^4 cells per well containing […] of culture medium and then cultured for 24 h in the opti-MEM medium supplemented with 2 mM glutamine (Gibco, Grand Island, NY, USA), streptomycin (50 μg/mL), penicillin (50 U/mL), and 5% fetal calf serum (Gibco). After the cell cultures were maintained at 37°C in an atmosphere saturated with 5% CO2, the four tested compounds prepared at the concentration of 1 mg/mL by dissolving in the mixture DMSO/culture medium (1 : 9) were diluted in cell culture to reach the required concentrations (ranging from 1 to 100 μg/mL). The in vitro cytotoxic activity of the tested compounds was evaluated using the MTT assay for leukaemia cells.

Plasmodium parasite = tested on: Plasmodium parasite; set-up: method as in doi:10.1016/j.sajb.2022.11.021; settings: in words; cited from earlier work

Compound: C[C@H]1[C@H](C)CC[C@]2(C(=O)O)CC[C@]3(C)C(=CC[C@@H]4[C@@]5(C)CC[C@H](O)C(C)(C)[C@@H]5CC[C@]43C)[C@H]12 [Compound 4, ursolic acid]
- IC50 ([1]; P388 leukaemia cells): 2.5 ± 0.6 µg/mL (≈ 5.47 µM)
- Antiplasmodial potency (Plasmodium parasite): weak

Compound: C=C(C)[C@@H]1CC[C@]2(C(=O)O)CC[C@]3(C)[C@H](CC[C@@H]4[C@@]5(C)CC[C@H](O)C(C)(C)[C@@H]5CC[C@]43C)[C@@H]12 [Compound 3, betulinic acid]
- IC50 ([1]; P388 cells): 6.8 ± 2.2 µg/mL (≈ 14.9 µM)

Compound: O=c1c2ccc(O)cc2oc2cccc(O)c12 [Compound 1, 1,6-dihydroxyxanthone]
- IC50 ([1]; P388 cells): 17.6 ± 0.7 µg/mL (≈ 77.1 µM)

Compound: O=c1c2cc(O)c(O)cc2oc2cc(O)cc(O)c12 [Compound 2, norathyriol]
- IC50 ([1]; P388 leukaemia cells): 21.8 ± 0.3 µg/mL (≈ 83.8 µM)
